{
  "source": "patent US9670217B2",
  "about": "“Process for preparing chlorins and their pharmaceutical uses” (UNIVERSIDADE DE COIMBRA, priority 2008, dated 2017)",
  "key": {"[1]": {"test_system": "CT26 (murine colon carcinoma)", "assay": "Cell photosensitization, 748 nm diode laser, resazurin", "format": "cell-based, mouse", "details": "6 J/cm^2 diode laser irradiation at 28.5 mW"}, "[2]": {"assay": "n-octanol:water partition coefficient (shake-flask)", "format": "physicochemical", "method": "The n-octanol:water partition coefficients (CP) were measured using a minor modification of the shake-flask method described by some of us in the literature. The modification concerned the excitation of the absorption band ca 500 nm and the collection of the fluorescence in the red/IR region."}, "[3]": {"assay": "Photobleaching under 748 nm diode laser irradiation", "format": "physicochemical", "details": "PBS:methanol; 100 mW laser irradiation at 748 nm", "description": "The irradiation of bacteriochlorins in the photobleaching experiments employed the 748 nm Lynx diode laser. For animal studies we employed a costumer-made Hamamatsu diode laser, type LA0873. S/N M070301, which delivered 140 mW at 748 nm. This diode laser was controlled by a ThorLabs 500 mA ACC/APC Laser Diode Controller and in-house electronics. The laser energies of this and the other higher-energy lasers employed in this work were regularly checked with an Ophir model AN/2E laser power meter.\nPhotobleaching experiments were conducted in PBS. PBS:methanol (50:50) and methanol solutions. The solutions were irradiated in a cuvette with an optical path of 1 cm and the Lynx diode laser. The initial absorption of the solutions was ca. 0.8. The mechanism of photobleaching was assessed with the irradiation of the sensitizer using the Hamamatsu diode laser at 80 mW. The sensitizer was irradiated in PBS and in the presence of ascorbic acid or azide.\nThe chemical stability of the compounds was studied exposing them to light, air, and pH changes. The most significant degradation occurs for aerated solutions irradiated by light of the appropriate wavelength. In such circumstances the photobleaching of the compounds follows a first-order rate and is proportional to the energy of the incident laser light. In general, it was also observed that the photobleaching rate increases with the amount of water present in the solution. Bennett reported the photoconversion of Foscan® (m-THPC) and of the analogous bacteriochlorin (m-THPB) in PBS:methanol (50:50). Scherz reported the photoconversion of Tookad® in acetone and Triton-X:PBS [3]. For the purpose of comparing the photostability of Luzitins with that of Foscan® and Tookad®, we present in Table 2 the half-lives (t1/2) of representative drugs described herein, together with those of Foscan and Tookad® normalized for a laser power of 100 mW.\nLuzitin-FMet was dissolved in PBS:methanol (2:3), transferred to a 1 cm quartz cell and its absorption spectrum was registered, FIG. 6. The quartz cell was then placed in the beam of the 748 nm Lynx diode laser, previously unfocused to have a beam diameter coincident with the window of the quartz cell. The laser power measured under these conditions was 28.8 mW. Every 5 minutes the irradiation was interrupted and a new absorption spectrum was registered. This procedure was followed for 65 minutes. The photobleaching follows the kinetics of a first-order reaction in the time window of the experiment. […] Whereas the bacteriochlorin peak at 743 nm is reduced from an absorbance of 1.128 to 0.337, the absorption of the chlorin only increases from 0.114 to 0.151. Taking into consideration the molar absorption coefficients of the compounds at these wavelengths, it is clear that whereas 70% of the bacteriochlorin is destroyed during the irradiation, only a few percent of chlorin are formed.\nThe half-lives of other bacteriochlorins normalized 100 mW laser irradiation at 748 nm are presented in […], together with the literature data for the photodegradation of Foscan® and Tookad® normalized for the same light intensity. It was also observed that the half-live to Luzitin-Cl is increased by a factor of 30 when the PBS solution of the photosensitizer is saturated with Argon, which reduces the oxygen concentration in the solution."}, "[4]": {"test_system": "A-549 (human non-small cell lung cancer)", "assay": "Cytotoxicity in the dark, resazurin assay", "format": "cell-based", "parameters": "unit not given here", "details": "A-549, dark", "method": "The cell lines employed in laser irradiation were the HT-29 (human colon carcinoma), PC-3 (human prostate carcinoma), SW2 (human small cell lung cancer), A-549 (human non-small cell lung cancer). S91/I3 (mouse melanoma) and CT26 (mouse colon carcinoma). They were used both for cytotoxicity and photocytotoxicity experiments. PC-3. SW2 and S91113 cells were cultured in RPMI-1640 medium (Sigma-Aldrich, Steinheim, Germany) and HT-29, A-549 and CT26 cells were cultured in Dulbecco's Modified Eagle Medium (DMEM) (Cambrex Bioscience, Verviers, Belgium). […] For the in vitro studies, cells at 85-90% confluence, were detached with Trypsin-Versene-EDTA solution (Cambrex Bioscience, Verviers, Belgium), counted and seeded in flat-bottom 96-well plates at the desired densities.\nCell viability assay. In the end of the experiences cell viability was evaluated by the resazurin reduction assay. […] The absorbance values of each well were measured at 540 nm and 630 nm using a microplate reader Multiskan Ex (Thermo-Electron Corporation, Vartaa, Finland).\nCytotoxicity. […] After the incubation the cell viability was evaluated. […] Cytotoxicity was quantified by expressing cell death relatively to untreated cells (% of control cells). […]"}, "[5]": {"test_system": "PC-3 (human prostate carcinoma)", "assay": "Cell photosensitization, 748 nm diode laser, resazurin", "format": "cell-based", "details": "6 J/cm^2 diode laser irradiation at 28.5 mW"}, "[6]": {"test_system": "A-549 (human non-small cell lung carcinoma)", "assay": "Cell photosensitization, 748 nm diode laser, resazurin", "format": "cell-based"}, "[7]": {"assay": "Absorption spectra (λmax, molar absorption coefficient)", "format": "physicochemical", "details": "ethanol solutions", "method": "Absorption spectra were recorded on a Shimadzu UV-2100 spectrophotometer or with a Carry 50 Biospectrophotometer (Varian, Mulgrave, USA). Fluorescence spectra were measured with a Spex Fluorolog 3 spectrophotometer, with correction for the wavelength dependence system (RCA C31034 photomultiplier), or with a PerkinElmer LS 50 spectrofluorimeter. Transient absorption spectra were measured with an Applied Photophysics LKS 60 nanosecond laser flash photolysis kinetic spectrometer, using the third harmonic of a Spectra-Physics Quanta Ray GCR 130-01 Nd/YAG laser for excitation, a Hamamatsu 1P28 photomultiplier and a Hewlett-Packard Infinium oscilloscope (1 GS/s). Flash photolysis measurements were made in the presence of air and in argon saturated solutions. Photoacoustic calorimetry employed the same Nd/YAG laser, a home-made front-face photoacoustic cell with a 2.25 MHz Panametrics transducer (model 5676) and a Tektronix DSA 601 transient recorder. Room-temperature singlet-oxygen phosphorescence was measured at 1270 nm with a Hamamatsu R5509-42 photomultiplier, cooled to 193 K in a liquid nitrogen chamber (Products for Research model PC176TSCE005), following laser excitation of aerated solutions at 355 nm, using an adapted Applied Photophysics spectrometer. Singlet oxygen emission at 1270 nm was also monitored with a liquid nitrogen-cooled germanium detector (North Coast) coupled to a Tectronix Digitizing scope (TDS 520B), following sample excitation with 5 ns laser pulses of the third harmonic (355 nm) generated by a Q-switched Nd:YAG laser (Continuum Surelite II).\nThis is indicative of little aggregation between the molecules, which exist mostly as monomers at these concentrations in the solvents studied. Table 1 presents typical red and infrared molar absorption coefficients (εmax) and wavelength maxima. The same table also presents representative fluorescence quantum yields (ΦF) of Luzitins. The fluorescence quantum yields decrease of these molecules decrease in the presence of chlorine substituents, a fingerprint of the heavy atom effect expected for such molecules."}},
  "data": [
    {"smiles": "CNS(=O)(=O)c1ccc(F)c(-c2c3nc(c(-c4c(F)ccc(S(=O)(=O)NC)c4F)c4ccc([nH]4)c(-c4c(F)ccc(S(=O)(=O)NC)c4F)c4nc(c(-c5c(F)ccc(S(=O)(=O)NC)c5F)c5ccc2[nH]5)CC4)CC3)c1F", "note": "[Luzitin-F2Met, 5,10,15,20-tetrakis(2,6-fluoro-3-N-methylsulfamoylphenyl)bacteriochlorin]", "values": [
      {"measurement": "concentration of sensitizer required to kill 90% of cells (LD90)", "setting": "[1]", "value": 1.0, "unit": "µM"},
      {"measurement": "log KOW (n-octanol:water partition coefficient)", "setting": "[2]", "value": 2.7},
      {"measurement": "t1/2 (photobleaching half-life)", "setting": "[3]", "value": "6,480 sec"},
      {"measurement": "highest concentration that causes relatively no effect in viability in the dark", "setting": "[4]", "value": 50},
      {"measurement": "concentration of sensitizer required to kill 90% of cells (LD90)", "setting": "[5]", "value": 0.5, "unit": "µM"},
      {"measurement": "cell kill", "setting": "[6]; 0.5 μM, laser light dose 6 J/cm^2, incubation 18 hours", "value": 100, "unit": "%"},
      {"measurement": "concentration of sensitizer required to kill 90% of cells (LD90)", "setting": "[6]; 6 J/cm^2 diode laser irradiation at 28.5 mW", "value": 0.5, "unit": "µM"},
      {"measurement": "λmax", "setting": "[7]", "value": 742.5, "unit": "nm"},
      {"measurement": "εmax", "setting": "[7]; corrected for the chlorin content", "value": "78,000^d) M^−1 cm^−1"}
    ]}
  ]
}
